# Measured values published in patent US9944589B2, “Cycloproplyamine derivatives useful as inhibitors of histone demethylases KDM1A” (Istituto Europeo de Oncologia S.r.L., priority 2012, dated 2018).
# Counter-ions that a name gives are not always drawn.
# What was measured:
# [1] = test system: Acute promyelocytic leukemia NB4 cells; test: Cell growth (CellTiter-Fluor cell viability assay); type: cell-based; conditions: Homo sapiens, NB-4, 48 h, range classes, read-out: IC50 [μM], cell growth inhibitory assay
# Source text: CellTiter-Flor® (Promega) is as a nonlytic, single-reagent-addition fluorescence assay that measures the relative number of living cells in a culture population after experimental manipulation. The CellTiter-Fluor™ Cell Viability Assay measures the conserved and constitutive protease activity within live cells and therefore acts as a marker for cell viability.
# Acute promyelocytic leukemia NB4 cells, (obtained from the Deutsche Sammlung von Mikroorganismen and Zellkulturen) in exponential growth, were incubated for 48 h with different concentrations of the inhibitors. After 48 h a volume of CellTiter-Fluor® Reagent equal to one fifth of volume of cell culture medium was added. The content was mixed and incubates for at least 90 min at 37° C. degree to obtain a stable signal. The fluorescence was recorded using an excitation wavelength of 360 nm and an emission at 535 nm. The IC50 was calculated using GraphPad Software.
# [2] = target: T1, human recombinant KDM1A (LSD1)/CoRest (Homo sapiens, UniProt O60341); test: Assay of enzyme inhibition of KDM1A (LSD1), Amplex UltraRed/peroxidase coupled; type: biochemical; conditions: 15 min preincubation, 4.5 μM mono-methylated H3-K4 peptide, range classes, read-out: IC50 [μM], KDM1A inhibition assay
# T1 construct: made in house; host or cells: E. coli
# Summary of the method: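 KDM1A/CoRest complex with inhibitor (e.g. 0–100 μM) and Amplex UltraRed/peroxidase preincubated 15 min at RT. Substrate: mono-methylated H3K4 21-mer peptide in 50 mM Tris pH 8, 0.05 mg/ml BSA, aerobic. IC50 from duplicates run twice, background-corrected.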
IC50 [1] [µM],IC50 [2] [µM],Structure (SMILES)
10 to 50,< 0.1,"CC[C@@]1(N)C[C@H]1c1ccc(NC(=O)Cc2cccc3ccccc23)cc1 (relative stereo) [Example A-68, N-[4-trans-[2-amino-2-ethyl-cyclopropyl]phenyl]-2-(1-naphthyl) acetamide hydrochloride]"
≤ 10,0.1 to 1,"N[C@]1(Cc2ccc3ccccc3c2)C[C@H]1c1ccc(NC(=O)c2ccc(NC(=O)OCc3ccccc3)cc2)cc1 (relative stereo) [Example A-70, benzyl N-[4-[[4-[trans-2-amino-2-(2-naphthylmethyl)cyclopropyl]phenyl]carbamoyl]phenyl]carbamate 2,2,2-trifluoroacetic acid]"
≤ 10,< 0.1,"CC[C@@]1(N)C[C@H]1c1ccc(NC(=O)c2cccc3ccccc23)cc1 (relative stereo) [Example A-71, N-[4-(trans-2-amino-2-ethyl-cyclopropyl)phenyl] naphthalene-1-carboxamide hydrochloride]"
≤ 10,0.1 to 1,"N[C@]1(Cc2ccc3ccccc3c2)C[C@H]1c1ccc(NC(=O)c2ccc3ccccc3c2)cc1 (relative stereo) [Example A-72, N-[4-[trans-2-amino-2-(2-naphthylmethyl)cyclopropyl]phenyl] naphthalene-2-carboxamide hydrochloride]"
10 to 50,0.1 to 1,"N[C@]1(Cc2ccc3ccccc3c2)C[C@H]1c1ccc(NC(=O)c2ccc(-c3ccccc3)cc2)cc1 (relative stereo) [Example A-73, N-[4-[trans-2-amino-2-(2-naphthylmethyl)cyclopropyl]phenyl]-4-phenyl-benzamide hydrochloride]"
10 to 50,< 0.1,"CC[C@@]1(N)C[C@H]1c1ccc(NC(=O)Cc2ccc3ccccc3c2)cc1 (relative stereo) [Example A-74, N-[4-trans-2-amino-2-ethyl-cyclopropyl] phenyl]-2-(2-naphthyl) acetamide hydrochloride]"
10 to 50,< 0.1,"N[C@]1(c2ccccc2)C[C@H]1c1ccc(NC(=O)c2ccccc2)cc1 (relative stereo) [Example A-75, N-[4-[trans-2-amino-2-phenyl-cyclopropyl]phenyl] benzamide hydrochloride]"
≤ 10,0.1 to 1,"N[C@]1(Cc2ccc3ccccc3c2)C[C@H]1c1ccc(NC(=O)Cc2cccc3ccccc23)cc1 (relative stereo) [Example A-76, N-[4-[trans-2-amino-2-(2-naphthylmethyl)cyclopropyl]phenyl]-2-(1-naphthyl)acetamide hydrochloride]"
10 to 50,0.1 to 1,"CC[C@@]1(N)C[C@H]1c1cccc(NC(=O)Cc2cccc3ccccc23)c1 (relative stereo) [Example A-77, N-[3-[trans-2-amino-2-ethyl-cyclopropyl]phenyl]-2-(1-naphthyl) acetamide hydrochloride]"
10 to 50,< 0.1,"N[C@]1(Cc2ccc3ccccc3c2)C[C@H]1c1ccc(NC(=O)c2cccc(Cl)c2)cc1 (relative stereo) [Example A-79, N-[4-[trans-2-amino-2-(2-naphthylmethyl)cyclopropyl]phenyl]-3-chloro-benzamide hydrochloride]"
10 to 50,0.1 to 1,"CC[C@@]1(N)C[C@H]1c1cccc(NC(=O)c2cccc(Cl)c2)c1 (relative stereo) [Example A-80, N-[3-[trans-2-amino-2-ethyl-cyclopropyl]phenyl]-3-chloro-benzamide hydrochloride]"
≤ 10,< 0.1,"CC[C@@]1(N)C[C@H]1c1ccc(NC(=O)c2ccc(N3CCOC3=O)cc2)cc1 (relative stereo) [Example A-83, N-[4-[trans-2-amino-2-ethyl-cyclopropyl]phenyl]-4-(2-oxooxazolidin-3-yl)benzamide hydrochloride]"
